From PubChem BioAssay AID1963960 (Molecular Pharmacology Branch, DTP, NCI, 2024)
pIC50: −log10 of the molar value.

Test system: MDA-MB-468 spheroids with HUVEC/MSC, viability
Experiment: Anticancer human tumor MDA-MB-468 cell line growth inhibition [PI3K];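 further: spheroids exposed to agents for seven days before readout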;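 on viability, T/C: 100% = DMSO vehicle control viability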
Details: for pIC50: curve of first compound; for viability, T/C: stronger effect = lower value; active means viability on the fitted dose curve at most 10% of control; inactive means the rest
Summary of the method: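 Complex 3D spheroids (cancer cells + endothelial HUVEC + mesenchymal stem cells); drug pairs of targeted agent x inavolisib/alpelisib/duvelisib/copanlisib; half-log series from ~Cmax, max 10 microM if Cmax unknown; endpoint viability.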

[1] = second compound 0.0316 µM, first compound 0.0316 µM
[2] = second compound 0.0316 µM, first compound 0.1 µM
[3] = second compound 0.0316 µM, first compound 0.316 µM
[4] = second compound 0.0316 µM, first compound 1 µM
[5] = second compound 0.0316 µM, first compound 3.16 µM
[6] = second compound 0.0316 µM, first compound 10 µM
[7] = second compound 0.1 µM, first compound 0.0316 µM
[8] = second compound 0.1 µM, first compound 0.1 µM
[9] = second compound 0.1 µM, first compound 0.316 µM
[10] = second compound 0.1 µM, first compound 1 µM
[11] = second compound 0.1 µM, first compound 3.16 µM
[12] = second compound 0.1 µM, first compound 10 µM
[13] = second compound 0.316 µM, first compound 0.0316 µM
[14] = second compound 0.316 µM, first compound 0.1 µM
[15] = second compound 0.316 µM, first compound 0.316 µM
[16] = second compound 0.316 µM, first compound 1 µM
[17] = second compound 0.316 µM, first compound 3.16 µM
[18] = second compound 0.316 µM, first compound 10 µM
[19] = second compound 1 µM, first compound 0.0316 µM
[20] = second compound 1 µM, first compound 0.1 µM
[21] = second compound 1 µM, first compound 0.316 µM
[22] = second compound 1 µM, first compound 1 µM
[23] = second compound 1 µM, first compound 3.16 µM
[24] = second compound 1 µM, first compound 10 µM
[25] = second compound 3.16 µM, first compound 0.0316 µM
[26] = second compound 3.16 µM, first compound 0.1 µM
[27] = second compound 3.16 µM, first compound 0.316 µM
[28] = second compound 3.16 µM, first compound 1 µM
[29] = second compound 3.16 µM, first compound 3.16 µM
[30] = second compound 3.16 µM, first compound 10 µM
[31] = second compound 10 µM, first compound 0.0316 µM
[32] = second compound 10 µM, first compound 0.1 µM
[33] = second compound 10 µM, first compound 0.316 µM
[34] = second compound 10 µM, first compound 1 µM
[35] = second compound 10 µM, first compound 3.16 µM
[36] = second compound 10 µM, first compound 10 µM

CC(Cn1ccc(-c2ccc(C#N)c(Cl)c2)n1)NC(=O)c1cc(C(C)O)[nH]n1 (stereo unspecified) + CC(Nc1ncnc2nc[nH]c12)c1cc2cccc(Cl)c2c(=O)n1-c1ccccc1
inactive: viability, T/C [1] 82% | viability, T/C [2] 92.4% | viability, T/C [3] 90.2% | viability, T/C [4] 90.3% | viability, T/C [5] 88.8% | viability, T/C [6] 79.1% | viability, T/C [7] 86.8% | viability, T/C [8] 80.7% | viability, T/C [9] 76.5% | viability, T/C [10] 88.4% | viability, T/C [11] 89% | viability, T/C [12] 71.7% | viability, T/C [13] 85.7% | viability, T/C [14] 93.6% | viability, T/C [15] 72.7% | viability, T/C [16] 76.1% | viability, T/C [17] 70.7% | viability, T/C [18] 66.3% | viability, T/C [19] 55.9% | viability, T/C [20] 69.1% | viability, T/C [21] 60.2% | viability, T/C [22] 73.9% | viability, T/C [23] 66.6% | viability, T/C [24] 57.6% | viability, T/C [25] 60.6% | viability, T/C [26] 58.8% | viability, T/C [27] 60.8% | viability, T/C [28] 52.4% | viability, T/C [29] 56.5% | viability, T/C [30] 47.1% | viability, T/C [31] 45.8% | viability, T/C [32] 40.5% | viability, T/C [33] 40.7% | viability, T/C [34] 43.1% | viability, T/C [35] 44.5% | viability, T/C [36] 38.6%
> 7.50: pIC50 (second compound 10 µM)
< 5.00: pIC50 (second compound 0.0316 µM) | pIC50 (second compound 0.1 µM) | pIC50 (second compound 0.316 µM) | pIC50 (second compound 1 µM) | pIC50 (second compound 3.16 µM)

CC1(C)CCC(Nc2ncc(C(F)(F)F)c(-c3c[nH]c4c(P(C)(C)=O)c(C#N)ccc34)n2)CN1 (stereo unspecified) + CC(Nc1ncnc2nc[nH]c12)c1cc2cccc(Cl)c2c(=O)n1-c1ccccc1
> 7.50: pIC50 (second compound 0.0316 µM) | pIC50 (second compound 0.1 µM) | pIC50 (second compound 0.316 µM) | pIC50 (second compound 1 µM) | pIC50 (second compound 3.16 µM) | pIC50 (second compound 10 µM)
inactive: viability, T/C [1] 11.2% | viability, T/C [7] 12.5% | viability, T/C [8] 11.6% | viability, T/C [13] 11.2% | viability, T/C [14] 11% | viability, T/C [19] 12.8% | viability, T/C [20] 10.6% | viability, T/C [25] 11.8% | viability, T/C [26] 10.2% | viability, T/C [31] 12.6% | viability, T/C [32] 10.8%
active: viability, T/C [2] 8.83% | viability, T/C [3] 8.44% | viability, T/C [4] 8.51% | viability, T/C [5] 9.51% | viability, T/C [6] 1.74% | viability, T/C [9] 8.64% | viability, T/C [10] 8.66% | viability, T/C [11] 8.77% | viability, T/C [12] 1.45% | viability, T/C [15] 9.67% | viability, T/C [16] 8.74% | viability, T/C [17] 9.29% | viability, T/C [18] 1.74% | viability, T/C [21] 9.64% | viability, T/C [22] 9.48% | viability, T/C [23] 9.76% | viability, T/C [24] 1.16% | viability, T/C [27] 11.1% | viability, T/C [28] 9.71% | viability, T/C [29] 7.09% | viability, T/C [30] 1.3% | viability, T/C [33] 10% | viability, T/C [34] 10% | viability, T/C [35] 7.06% | viability, T/C [36] 1.03%

Cn1nccc1Nc1nccc(-c2ccn(C(CO)c3ccc(Cl)c(F)c3)c(=O)c2)n1 (stereo unspecified) + CC(Nc1ncnc2nc[nH]c12)c1cc2cccc(Cl)c2c(=O)n1-c1ccccc1
> 7.50: pIC50 (second compound 10 µM)
inactive: viability, T/C [1] 74.2% | viability, T/C [2] 84.5% | viability, T/C [3] 79.5% | viability, T/C [4] 79.6% | viability, T/C [5] 79.4% | viability, T/C [6] 78.3% | viability, T/C [7] 80.1% | viability, T/C [8] 86.1% | viability, T/C [9] 77.8% | viability, T/C [10] 96.7% | viability, T/C [11] 83.8% | viability, T/C [12] 73.5% | viability, T/C [13] 73.1% | viability, T/C [14] 69.3% | viability, T/C [15] 68.4% | viability, T/C [16] 73% | viability, T/C [17] 78.5% | viability, T/C [18] 78.9% | viability, T/C [19] 65.7% | viability, T/C [20] 59.8% | viability, T/C [21] 62% | viability, T/C [22] 71.8% | viability, T/C [23] 73.4% | viability, T/C [24] 72% | viability, T/C [25] 56.6% | viability, T/C [26] 55.1% | viability, T/C [27] 49% | viability, T/C [28] 63.2% | viability, T/C [29] 54.5% | viability, T/C [30] 48.8% | viability, T/C [31] 33.8% | viability, T/C [32] 34.8% | viability, T/C [33] 31.1% | viability, T/C [34] 32.2% | viability, T/C [35] 39.2% | viability, T/C [36] 27.6%
< 5.00: pIC50 (second compound 0.0316 µM) | pIC50 (second compound 0.1 µM) | pIC50 (second compound 0.316 µM) | pIC50 (second compound 1 µM) | pIC50 (second compound 3.16 µM)
